Data on 23 compounds can be found in patent US8575157B2, “Cyclic inhibitors of 11beta-hydroxysteroid dehydrogenase 1” (Vitae Pharmaceuticals, Inc., priority 2010, dated 2013).

Molecules are shown by their SMILES. pIC50: −log10 of the molar value. Read-outs that look alike come from different tables or passages of the source.

What all share (format): in vitro ADME
One series deals with human CYP2C9 (Homo sapiens (Human), UniProt P11712). The series is described as follows: CYP2C9 inhibition (Invitrogen kit, OOMR fluorogenic substrate), Biological Test Example 9. The settings on record: read-out: Biological Test Example 9 CYP2C9 IC50.
For series [1], the target named is human recombinant cytochrome P450 3A4 (Homo sapiens (Human), UniProt P08684). Description: CYP3A4 inhibition, Biological Test Example 6.
In series [2] the target is human recombinant cytochrome P450 2C9 (Homo sapiens (Human), UniProt P11712). Description: CYP2C9 inhibition ([O-methyl-14C]-Naproxen), Biological Test Example 7.
The target in series [3] is human recombinant cytochrome P450 2C19 (Homo sapiens (Human), UniProt P33261). The series is described as follows: CYP2C19 inhibition, Biological Test Example 8. As to conditions: read-out: Biological Test Example 8 CYP2C19, IC50.
Setting [4] is: Invitrogen kit, OOMR fluorogenic substrate.
The mark [5] stands for this setting: human recombinant CYP2C19, [N-methyl-14C]-Diazepam.

Sequence of human CYP2C9 (P11712 whole entry): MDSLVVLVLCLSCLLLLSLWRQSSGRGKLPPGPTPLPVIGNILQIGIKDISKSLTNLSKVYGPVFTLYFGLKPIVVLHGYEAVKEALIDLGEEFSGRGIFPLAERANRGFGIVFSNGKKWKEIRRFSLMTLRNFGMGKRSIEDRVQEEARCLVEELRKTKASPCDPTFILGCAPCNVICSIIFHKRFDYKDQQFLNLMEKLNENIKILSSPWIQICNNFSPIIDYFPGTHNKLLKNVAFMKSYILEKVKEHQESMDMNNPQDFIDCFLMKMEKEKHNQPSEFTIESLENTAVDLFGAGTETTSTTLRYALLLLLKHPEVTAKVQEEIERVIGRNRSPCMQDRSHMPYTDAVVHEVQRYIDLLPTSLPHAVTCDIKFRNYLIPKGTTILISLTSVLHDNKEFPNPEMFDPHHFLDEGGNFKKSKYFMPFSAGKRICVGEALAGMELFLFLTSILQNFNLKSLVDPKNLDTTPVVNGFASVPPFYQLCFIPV
Sequence of human recombinant cytochrome P450 2C9 (P11712 whole entry): as above
Sequence of human recombinant cytochrome P450 3A4 (P08684 whole entry): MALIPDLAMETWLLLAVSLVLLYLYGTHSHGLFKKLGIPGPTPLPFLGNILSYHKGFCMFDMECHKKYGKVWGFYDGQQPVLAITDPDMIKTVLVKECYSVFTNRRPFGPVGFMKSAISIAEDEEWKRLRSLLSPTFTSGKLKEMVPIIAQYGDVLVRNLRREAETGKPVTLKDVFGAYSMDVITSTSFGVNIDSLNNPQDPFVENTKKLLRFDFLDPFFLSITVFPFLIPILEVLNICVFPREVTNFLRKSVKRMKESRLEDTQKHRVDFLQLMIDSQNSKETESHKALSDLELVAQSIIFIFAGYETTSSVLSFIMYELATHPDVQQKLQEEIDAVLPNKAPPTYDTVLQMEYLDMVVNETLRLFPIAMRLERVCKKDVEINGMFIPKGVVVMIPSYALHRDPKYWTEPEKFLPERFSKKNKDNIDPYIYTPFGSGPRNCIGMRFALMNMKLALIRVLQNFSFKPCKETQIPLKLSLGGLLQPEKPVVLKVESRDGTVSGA
Sequence of human recombinant cytochrome P450 2C19 (P33261 whole entry): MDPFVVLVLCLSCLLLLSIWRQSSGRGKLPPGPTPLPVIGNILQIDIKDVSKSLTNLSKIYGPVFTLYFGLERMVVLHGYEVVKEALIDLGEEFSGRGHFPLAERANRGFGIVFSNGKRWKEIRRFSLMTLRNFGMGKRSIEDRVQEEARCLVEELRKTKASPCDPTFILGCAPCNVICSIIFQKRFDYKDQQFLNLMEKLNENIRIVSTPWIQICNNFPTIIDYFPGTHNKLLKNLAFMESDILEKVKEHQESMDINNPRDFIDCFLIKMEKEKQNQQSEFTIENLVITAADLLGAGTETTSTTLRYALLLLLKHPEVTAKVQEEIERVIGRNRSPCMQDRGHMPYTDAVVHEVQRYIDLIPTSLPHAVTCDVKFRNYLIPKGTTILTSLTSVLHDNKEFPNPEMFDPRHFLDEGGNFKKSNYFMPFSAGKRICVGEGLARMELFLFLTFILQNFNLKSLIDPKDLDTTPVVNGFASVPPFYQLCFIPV

Take `C[C@@H](c1ccc(-c2cc[nH]c(=O)c2)cc1)N1CC[C@](CC(C)(C)O)(c2ccccc2)OC1=O` [Example 2, (S)-6-(2-hydroxy-2-methylpropyl)-3-((S)-1-(4-(2-oxo-1,2-dihydropyridin-4-yl)phenyl)ethyl)-6-phenyl-1,3-oxazinan-2-one]: on human CYP2C9 (setting [4]), the negative-log IC50 (pIC50) was 5.85.
`C[C@@H](c1ccc(-c2ccc(=O)n(C3CC3)c2)cc1)N1CC[C@](CC(C)(C)O)(c2ccccc2)OC1=O` [Example 3, (S)-3-((S)-1-(4-(1-cyclopropyl-6-oxo-1,6-dihydropyridin-3-yl)phenyl)ethyl)-6-(2-hydroxy-2-methylpropyl)-6-phenyl-1,3-oxazinan-2-one]: the pIC50 in series [1] (human recombinant CYP3A4) is […]; in series [2] (human recombinant CYP2C9), […]; in series [3] (setting [5]), […]; on human CYP2C9 (setting [4]), […].
Turning to `C[C@@H](c1ccc(-c2ccc(=O)n(C(F)F)c2)cc1)N1CC[C@](CC(C)(C)O)(c2ccccc2)OC1=O` [Example 4, (S)-3-((S)-1-(4-(1-(difluoromethyl)-6-oxo-1,6-dihydropyridin-3-yl)phenyl)ethyl)-6-(2-hydroxy-2-methylpropyl)-6-phenyl-1,3-oxazinan-2-one], the pIC50 on human CYP2C9 (setting [4]) was 5.29.
As to `C[C@@H](c1ccc(-c2ccn(C(F)F)c(=O)c2)cc1)N1CC[C@](CC(C)(C)O)(c2ccccc2)OC1=O` [Example 5, (S)-3-((S)-1-(4-(1-(difluoromethyl)-2-oxo-1,2-dihydropyridin-4-yl)phenyl)ethyl)-6-(2-hydroxy-2-methylpropyl)-6-phenyl-1,3-oxazinan-2-one], the pIC50 in series [3] (setting [5]) was […].
Consider `C[C@@H](c1ccc(-c2ccc(=O)n(C)c2)cc1)N1CC[C@](CC(C)(C)C(N)=O)(c2ccccc2)OC1=O` [Example 6, 2,2-dimethyl-3-((R)-3-((S)-1-(4-(1-methyl-6-oxo-1,6-dihydropyridin-3-yl)phenyl)ethyl)-2-oxo-6-phenyl-1,3-oxazinan-6-yl)propanamide], for which the pIC50 in series [1] (human recombinant CYP3A4) is 5.36; in series [2] (human recombinant CYP2C9), 5.64; in series [3] (setting [5]) it was 5.07; at human CYP2C9 (setting [4]), 5.30.
Regarding `C[C@@H](c1ccc(-c2ccc(=O)n(C)c2)cc1)N1CC[C@](CC(C)(C)N)(c2ccccc2)OC1=O` [Example 7, (S)-6-(2-amino-2-methylpropyl)-3-((S)-1-(4-(1-methyl-6-oxo-1,6-dihydropyridin-3-yl)phenyl)ethyl)-6-phenyl-1,3-oxazinan-2-one], the negative-log IC50 (pIC50) at human CYP2C9 (setting [4]) is 5.40.
On to `CC(=O)NC(C)(C)C[C@]1(c2ccccc2)CCN([C@@H](C)c2ccc(-c3ccc(=O)n(C)c3)cc2)C(=O)O1` [Example 8, N-(2-methyl-1-((S)-3-((S)-1-(4-(1-methyl-6-oxo-1,6-dihydropyridin-3-yl)phenyl)ethyl)-2-oxo-6-phenyl-1,3-oxazinan-6-yl)propan-2-yl)acetamide], for which the pIC50 in series [1] (human recombinant CYP3A4) is […]; in series [2] (human recombinant CYP2C9), […]; in series [3] (setting [5]), […]; at human CYP2C9 (setting [4]), 5.52.
For `C[C@@H](c1ccc(-c2ccc(=O)[nH]c2)cc1)N1CC[C@](CC(C)(C)NS(C)(=O)=O)(c2ccccc2)OC1=O` [Example 10, N-(2-methyl-1-((S)-2-oxo-3-((S)-1-(4-(6-oxo-1,6-dihydropyridin-3-yl)phenyl)ethyl)-6-phenyl-1,3-oxazinan-6-yl)propan-2-yl)methanesulfonamide], the figures for the pIC50 at human CYP2C9 and at human CYP2C9 (setting [4]) were […] and […], respectively.
Regarding `C[C@@H](c1ccc(-c2ccn(C)c(=O)c2)cc1)N1CC[C@](CC(C)(C)NS(C)(=O)=O)(c2ccccc2)OC1=O` [Example 13, N-(2-methyl-1-((S)-3-((S)-1-(4-(1-methyl-2-oxo-1,2-dihydropyridin-4-yl)phenyl)ethyl)-2-oxo-6-phenyl-1,3-oxazinan-6-yl)propan-2-yl)methanesulfonamide], the pIC50 is 5.36 in series [1] (human recombinant CYP3A4), 5.25 in series [2] (human recombinant CYP2C9), over 6.40 in series [3] (setting [5]) and 5.14 at human CYP2C9 (setting [4]).
In the same order, the values of `C[C@@H](c1ccc(-c2cc[nH]c(=O)c2)cc1)N1CC[C@](CC(C)(C)C#N)(c2ccccc2)OC1=O` [Example 14, 2,2-dimethyl-3-((R)-2-oxo-3-((S)-1-(4-(2-oxo-1,2-dihydropyridin-4-yl)phenyl)ethyl)-6-phenyl-1,3-oxazinan-6-yl)propanenitrile] are 4.71, 4.59, 5.19 and 4.61.
On the same counts, the results for `C[C@@H](c1ccc(-c2ccc(=O)[nH]c2)cc1)N1CC[C@](CC(C)(C)C#N)(c2ccc(F)cc2)OC1=O` [Example 15, 3-((R)-6-(4-fluorophenyl)-2-oxo-3-((S)-1-(4-(6-oxo-1,6-dihydropyridin-3-yl)phenyl)ethyl)-1,3-oxazinan-6-yl)-2,2-dimethylpropanenitrile] are 5.51, 5.11, over 6.40 and 5.02.
For the compound `C[C@@H](c1ccc(-c2ccn(C)c(=O)c2)cc1)N1CC[C@](CC(C)(C)O)(c2ccccc2F)OC1=O` [Example 26, (S)-6-(2-fluorophenyl)-6-(2-hydroxy-2-methylpropyl)-3-((S)-1-(4-(1-methyl-2-oxo-1,2-dihydropyridin-4-yl)phenyl)ethyl)-1,3-oxazinan-2-one], the pIC50 in series [1], in series [2] and in series [3] was under 4.30 each time.
Turning to `C[C@@H](c1ccc(-c2ccc(=O)n(C)c2)cc1)N1CC[C@](CCCO)(c2ccccc2)OC1=O` [Example 30, (R)-6-(3-hydroxypropyl)-3-((S)-1-(4-(1-methyl-6-oxo-1,6-dihydropyridin-3-yl)phenyl)ethyl)-6-phenyl-1,3-oxazinan-2-one], in series [1], the pIC50 was under 4.30.
With `C[C@@H](c1ccc(-c2ccc(=O)n(C)c2)cc1)N1CC[C@](CC(C)(C)O)(c2ccc(F)cc2)OC1=O` [Example 32, (S)-6-(4-fluorophenyl)-6-(2-hydroxy-2-methylpropyl)-3-((S)-1-(4-(1-methyl-6-oxo-1,6-dihydropyridin-3-yl)phenyl)ethyl)-1,3-oxazinan-2-one], the pIC50 in series [1], in series [2] and in series [3] was under 4.30 in each case.
As for `CC[C@@H](c1ccc(-c2ccc(=O)n(C)c2)cc1)N1CC[C@](CCO)(c2ccccc2)OC1=O` [Example 40, (S)-6-(2-hydroxyethyl)-3-((S)-1-(4-(1-methyl-6-oxo-1,6-dihydropyridin-3-yl)phenyl)propyl)-6-phenyl-1,3-oxazinan-2-one], the pIC50 in series [1] and in series [2] was under 4.30 throughout.
Turning to `CCn1cc(-c2ccc([C@H](C)N3CC[C@](CC(C)(C)O)(c4ccccc4)OC3=O)cc2)ccc1=O` [Example 53, (S)-3-((S)-1-(4-(1-ethyl-6-oxo-1,6-dihydropyridin-3-yl)phenyl)ethyl)-6-(2-hydroxy-2-methylpropyl)-6-phenyl-1,3-oxazinan-2-one], the pIC50 in series [1] is under 4.30; in series [2], under 4.30; in series [3], under 4.30; on human CYP2C9, 4.52.
Consider `CC(C)n1cc(-c2ccc([C@H](C)N3CC[C@](CC(C)(C)O)(c4ccccc4)OC3=O)cc2)ccc1=O` [Example 59, (S)-6-(2-hydroxy-2-methylpropyl)-3-((S)-1-(4-(1-isopropyl-6-oxo-1,6-dihydropyridin-3-yl)phenyl)ethyl)-6-phenyl-1,3-oxazinan-2-one], for which, in series [1], the pIC50 is under 4.30.
On the same count and under the same terms, with `Cc1cc(-c2ccc([C@H](C)N3CC[C@](CC(C)(C)O)(c4ccccc4)OC3=O)cc2)cn(C)c1=O` [Example 61, (S)-3-((S)-1-(4-(1,5-dimethyl-6-oxo-1,6-dihydropyridin-3-yl)phenyl)ethyl)-6-(2-hydroxy-2-methylpropyl)-6-phenyl-1,3-oxazinan-2-one] the figure was under 4.30.
For `CCn1cc(-c2ccc([C@H](C)N3CC[C@](CC(C)(C)O)(c4ccc(F)cc4)OC3=O)cc2)ccc1=O` [Example 62, (S)-3-((S)-1-(4-(1-ethyl-6-oxo-1,6-dihydropyridin-3-yl)phenyl)ethyl)-6-(4-fluorophenyl)-6-(2-hydroxy-2-methylpropyl)-1,3-oxazinan-2-one], the negative logarithm of the IC50 (pIC50) in series [2] is under 4.30.
On to `Cc1cc(-c2ccc([C@H](C)N3CC[C@](CC(C)(C)O)(c4ccccc4)OC3=O)cc2)cc(=O)n1C` [Example 64, (S)-3-((S)-1-(4-(1,6-dimethyl-2-oxo-1,2-dihydropyridin-4-yl)phenyl)ethyl)-6-(2-hydroxy-2-methylpropyl)-6-phenyl-1,3-oxazinan-2-one], for which, in series [1], the pIC50 is under 4.30.
Regarding `C[C@@H](c1ccc(-c2ccc(=O)n(C)c2)cc1)N1CC[C@](CC(C)(C)C#N)(c2ccc(F)cc2)OC1=O` [Example 69, 3-((R)-6-(4-fluorophenyl)-3-((S)-1-(4-(1-methyl-6-oxo-1,6-dihydropyridin-3-yl)phenyl)ethyl)-2-oxo-1,3-oxazinan-6-yl)-2,2-dimethylpropanenitrile], in series [3], the pIC50 was under 4.30.
`CCn1cc(-c2ccc([C@H](C)N3CC[C@](CC(C)(C)O)(c4ccccc4)OC3=O)cc2)cc(C)c1=O` [Example 70, (S)-3-((S)-1-(4-(1-ethyl-5-methyl-6-oxo-1,6-dihydropyridin-3-yl)phenyl)ethyl)-6-(2-hydroxy-2-methylpropyl)-6-phenyl-1,3-oxazinan-2-one]: in series [2], the pIC50 is under 4.30.
With `C[C@@H](c1ccc(-c2ccn(C3CC3)c(=O)c2)cc1)N1CC[C@](CC(C)(C)O)(c2ccccc2F)OC1=O` [Example 88, (S)-3-((S)-1-(4-(1-cyclopropyl-2-oxo-1,2-dihydropyridin-4-yl)phenyl)ethyl)-6-(2-fluorophenyl)-6-(2-hydroxy-2-methylpropyl)-1,3-oxazinan-2-one], the pIC50 in series [1] and in series [3] was under 4.30 throughout.

What is called pIC50 is the negative decadic logarithm of the IC50, by convention in mol/L.
